Reference: the NIST ThermoML archive (doi:10.1016/j.jct.2007.08.008)
“And” between values parts separate entries of the source, which are not always exact repeats. Identical values can stand only once. ± gives the expanded uncertainty stated by the source.

Details: Crystal; for mass density: 298.15 K, 101.33 kPa, measurement of volume and mass of pellet; for vapor or sublimation pressure: Calculated from knudsen effusion weight loss

c1ccc(-c2cccc(-c3ccccc3)c2)cc1 [m-terphenyl]
Details | mass density [kg/m3] | vapor or sublimation pressure
– | 1140 ± 20 | –
337.28 K | – | 6.28e-05 ± 3.2e-06 kPa and 6.44e-05 ± 3.2e-06 kPa and 6.48e-05 ± 3.3e-06 kPa
339.22 K | – | 8.09e-05 ± 4.1e-06 kPa and 8.13e-05 ± 4.1e-06 kPa and 7.88e-05 ± 4e-06 kPa
341.11 K | – | 0.000101 ± 5e-06 kPa and 9.73e-05 ± 4.9e-06 kPa
343.27 K | – | 0.000133 ± 7e-06 kPa and 0.00013 ± 1e-05 kPa and 0.000134 ± 7e-06 kPa
345.21 K | – | 0.000164 ± 8e-06 kPa and 0.000163 ± 8e-06 kPa and 0.000162 ± 8e-06 kPa
347.1 K | – | 0.000197 ± 1e-05 kPa and 0.000204 ± 1e-05 kPa
349.27 K | – | 0.000263 ± 1.3e-05 kPa and 0.000257 ± 1.3e-05 kPa and 0.000264 ± 1.3e-05 kPa
351.2 K | – | 0.000324 ± 1.6e-05 kPa and 0.000328 ± 1.6e-05 kPa
353.11 K | – | 0.000403 ± 2e-05 kPa and 0.000399 ± 2e-05 kPa
355.28 K | – | 0.000518 ± 2.6e-05 kPa and 0.000524 ± 2.6e-05 kPa and 0.000532 ± 2.7e-05 kPa
357.19 K | – | 0.000655 ± 3.3e-05 kPa and 0.00065 ± 3.3e-05 kPa and 0.000648 ± 3.2e-05 kPa
359.1 K | – | 0.000797 ± 4e-05 kPa and 0.00081 ± 4.1e-05 kPa and 0.000807 ± 4e-05 kPa

c1ccc(-c2ccccc2-c2ccccc2)cc1 [o-terphenyl]
Details | mass density [kg/m3] | vapor or sublimation pressure
– | 1120 ± 20 | –
312.3 K | – | 6.04e-05 ± 3e-06 kPa and 6.13e-05 ± 3.1e-06 kPa and 5.87e-05 ± 2.9e-06 kPa
313.79 K | – | 7.08e-05 ± 3.6e-06 kPa and 7.16e-05 ± 3.6e-06 kPa
315.13 K | – | 8.28e-05 ± 4.2e-06 kPa
315.14 K | – | 8.47e-05 ± 4.2e-06 kPa and 8.48e-05 ± 4.3e-06 kPa
315.78 K | – | 7.29e-05 ± 1.2e-05 kPa
316.78 K | – | 0.000103 ± 5e-06 kPa and 0.000102 ± 5e-06 kPa and 0.000104 ± 5e-06 kPa
318.28 K | – | 0.000125 ± 6e-06 kPa and 0.000123 ± 6e-06 kPa and 0.000124 ± 6e-06 kPa
319.64 K | – | 0.000143 ± 7e-06 kPa and 0.000145 ± 7e-06 kPa and 0.000148 ± 7e-06 kPa
321.28 K | – | 0.000181 ± 9e-06 kPa and 0.000179 ± 9e-06 kPa and 0.000174 ± 9e-06 kPa
322.78 K | – | 0.000217 ± 1.1e-05 kPa and 0.000212 ± 1.1e-05 kPa
324.14 K | – | 0.000247 ± 1.2e-05 kPa and 0.000249 ± 1.2e-05 kPa
325.78 K | – | 0.000305 ± 1.5e-05 kPa and 0.000308 ± 1.5e-05 kPa and 0.0003 ± 1.5e-05 kPa
327.28 K | – | 0.000368 ± 1.8e-05 kPa and 0.00036 ± 1.8e-05 kPa and 0.000361 ± 1.8e-05 kPa
328.63 K | – | 0.000419 ± 2.1e-05 kPa and 0.000422 ± 2.1e-05 kPa and 0.000423 ± 2.1e-05 kPa

c1ccc(-c2ccc(-c3ccccc3)cc2)cc1 [p-terphenyl]
Details | mass density [kg/m3] | vapor or sublimation pressure
– | 1200 ± 20 | –
373.27 K | – | 0.000127 ± 6e-06 kPa and 0.000126 ± 6e-06 kPa and 0.000125 ± 6e-06 kPa
375.22 K | – | 0.000154 ± 8e-06 kPa and 0.000153 ± 8e-06 kPa
377.14 K | – | 0.000185 ± 9e-06 kPa and 0.000189 ± 9e-06 kPa and 0.000182 ± 9e-06 kPa
379.28 K | – | 0.000232 ± 1.2e-05 kPa and 0.000233 ± 1.2e-05 kPa and 0.000234 ± 1.2e-05 kPa
381.21 K | – | 0.00028 ± 2e-05 kPa and 0.000283 ± 1.4e-05 kPa and 0.000281 ± 1.4e-05 kPa
383.28 K | – | 0.000344 ± 1.7e-05 kPa and 0.000347 ± 1.7e-05 kPa and 0.000348 ± 1.7e-05 kPa
385.17 K | – | 0.000421 ± 2.1e-05 kPa and 0.000417 ± 2.1e-05 kPa
387.12 K | – | 0.000516 ± 2.6e-05 kPa and 0.000498 ± 2.5e-05 kPa
389.27 K | – | 0.000628 ± 3.1e-05 kPa and 0.000626 ± 3.1e-05 kPa and 0.000631 ± 3.2e-05 kPa
391.16 K | – | 0.000748 ± 3.7e-05 kPa and 0.000758 ± 3.8e-05 kPa and 0.000757 ± 3.8e-05 kPa
393.22 K | – | 0.000928 ± 4.6e-05 kPa and 0.000931 ± 4.7e-05 kPa and 0.000922 ± 4.6e-05 kPa
395.27 K | – | 0.001137 ± 0.00012 kPa and 0.001131 ± 0.00012 kPa and 0.001138 ± 0.00012 kPa
